Results: US7015215B2, “Pyrrolo[2,1-c][1,4] benzodiazepines compounds and process thereof” (Council of Scientific and Industrial Research, priority 2003, dated 2006)

How the values were obtained:
Type in all cases: cell-based, human
BT-549 = test: NCI SRB cytotoxicity, Breast BT-549; settings: BT-549, Breast, 48 h
Method: (§1) Biological Activity: In vitro biological activity studies were carried out at National Cancer Institute (U.S.A.).
(§2) For each compound, dose response curves for each cell line were measured at a minimum of five concentrations at 10 fold dilutions. A protocol of 48 h continuous drug exposure was used, and a sulforhodamine B (SRB) protein assay was used to estimate cell viability or growth. The concentration causing 50% cell growth inhibition (GI50), total cell growth inhibition (TGI, 0% growth) and 50% cell death (LC50, −50% growth) compared with the control was calculated.

COLO 205 = test: NCI SRB cytotoxicity, Colon COLO 205; settings: COLO 205, Colon, 48 h
Method: as §1, §2

HT-29 = test: NCI SRB cytotoxicity, Colon HT-29; settings: HT-29, Colon, 48 h
Method: as §1, §2

SF-295 = test: NCI SRB cytotoxicity, CNS SF-295; settings: SF-295, CNS, 48 h
Method: as §1, §2

SK-MEL-28 = test: NCI SRB cytotoxicity, Melanoma SK-MEL-28; settings: SK-MEL-28, Melanoma, 48 h
Method: as §1, §2

NCI-H23 = test: NCI SRB cytotoxicity, Non-small-cell lung NCI-H23; settings: 48 h
Method: as §1, §2

HCT-116 = test: NCI SRB cytotoxicity, Colon HCT-116; settings: HCT-116, Colon, 48 h
Method: as §1, §2

HOP-62 = test: NCI SRB cytotoxicity, Non-small-cell lung HOP-62; settings: HOP-62, Non-small-cell lung, 48 h
Method: as §1, §2

SN12C = test: NCI SRB cytotoxicity, Renal SN12C; settings: 48 h
Method: as §1, §2

HS578T = test: NCI SRB cytotoxicity, Breast HS578T; settings: 48 h
Method: as §1, §2

786-0 = test: NCI SRB cytotoxicity, Renal 786-0; settings: 786-0, Renal, 48 h
Method: as §1, §2

ACHN = test: NCI SRB cytotoxicity, Renal ACHN; settings: 48 h
Method: as §1, §2

U251 = test: NCI SRB cytotoxicity, CNS U251; settings: 48 h
Method: as §1, §2

KM-12 = test: NCI SRB cytotoxicity, Colon KM-12; settings: KM-12, Colon, 48 h
Method: as §1, §2

RXF 393 = test: NCI SRB cytotoxicity, Renal RXF 393; settings: RXF 393, Renal, 48 h
Method: as §2

TK-10 = test: NCI SRB cytotoxicity, Renal TK-10; settings: TK-10, Renal, 48 h
Method: as §1, §2

SW-620 = test: NCI SRB cytotoxicity, Colon SW-620; settings: SW-620, Colon, 48 h
Method: as §1, §2

SNB-75 = test: NCI SRB cytotoxicity, CNS SNB-75; settings: SNB-75, CNS, 48 h
Method: as §1, §2

SK-MEL-5 = test: NCI SRB cytotoxicity, Melanoma SK-MEL-5; settings: SK-MEL-5, Melanoma, 48 h
Method: as §1, §2

T-47D = test: NCI SRB cytotoxicity, Breast T-47D; settings: 48 h
Method: as §1, §2

OVCAR-4 = test: NCI SRB cytotoxicity, Ovarian OVCAR-4; settings: OVCAR-4, Ovarian, 48 h
Method: as §1, §2

CAKI-1 = test: NCI SRB cytotoxicity, Renal CAKI-1; settings: CAKI-1, Renal, 48 h
Method: as §1, §2

K-62 = test: NCI SRB cytotoxicity, Leukemia K-62; settings: K-62, Leukemia, 48 h
Method: as §1, §2

SR = test: NCI SRB cytotoxicity, Leukemia SR; settings: 48 h
Method: as §1, §2

EKVX = test: NCI SRB cytotoxicity, Non-small-cell lung EKVX; settings: 48 h
Method: as §1, §2

UACC-257 = test: NCI SRB cytotoxicity, Melanoma UACC-257; settings: UACC-257, Melanoma, 48 h
Method: as §1, §2

OVCAR-5 = test: NCI SRB cytotoxicity, Ovarian OVCAR-5; settings: OVCAR-5, Ovarian, 48 h
Method: as §1, §2

MOLT-4 = test: NCI SRB cytotoxicity, Leukemia MOLT-4; settings: MOLT-4, Leukemia, 48 h
Method: as §1, §2

OVCAR-8 = test: NCI SRB cytotoxicity, Ovarian OVCAR-8; settings: OVCAR-8, Ovarian, 48 h
Method: as §1, §2

NCI-H522 = test: NCI SRB cytotoxicity, Non-small-cell lung NCI-H522; settings: 48 h
Method: as §1, §2

MDA-MB-435 = test: NCI SRB cytotoxicity, Breast MDA-MB-435; settings: MDA-MB-435, Breast, 48 h
Method: as §1, §2

A498 = test: NCI SRB cytotoxicity, Renal A498; settings: 48 h
Method: as §1, §2

UACC-62 = test: NCI SRB cytotoxicity, Melanoma UACC-62; settings: UACC-62, Melanoma, 48 h
Method: as §1, §2

UO-31 = test: NCI SRB cytotoxicity, Renal UO-31; settings: UO-31, Renal, 48 h
Method: as §2

PC-3 = test: NCI SRB cytotoxicity, Prostate PC-3; settings: PC-3, Prostate, 48 h
Method: as §2

SK-MEL-2 = test: NCI SRB cytotoxicity, Melanoma SK-MEL-2; settings: SK-MEL-2, Melanoma, 48 h
Method: as §1, §2

SMILES: COc1cc2c(cc1OCCN1CCN(CCOc3cc4c(cc3OC)C(=O)N3CCC[C@H]3C=N4)CC1)N=C[C@@H]1CCCN1C2=O [Compound VIa, 1,1′-{[(bisethane-1,N-diyl)piperazine]dioxy}bis[(11aS)-7-methoxy-1,2,3,11a-tetrahydro-5H-pyrrolo[2,1-c][1,4]benzodiazepin-5-one]]
- Log GI 50 (BT-549): −4.56 mol/L
- Log LC 50 (BT-549): −4.00 mol/L
- Log GI 50 (COLO 205): −4.66 mol/L
- Log LC 50 (COLO 205): −4.00 mol/L
- Log GI 50 (HT-29): −4.58 mol/L
- Log LC 50 (HT-29): −4.00 mol/L
- Log GI 50 (SF-295): −5.06 mol/L
- Log LC 50 (SF-295): −4.00 mol/L
- Log GI 50 (SK-MEL-28): −4.22 mol/L
- Log LC 50 (SK-MEL-28): −4.00 mol/L
- Log GI 50 (NCI-H23): −4.76 mol/L
- Log LC 50 (NCI-H23): −4.00 mol/L
- Log GI 50 (HCT-116): −4.47 mol/L
- Log LC 50 (HCT-116): −4.00 mol/L
- Log GI 50 (HOP-62): −4.46 mol/L
- Log LC 50 (HOP-62): −4.00 mol/L
- Log GI 50 (SN12C): −4.90 mol/L
- Log LC 50 (SN12C): −4.00 mol/L
- Log GI 50 (HS578T): −4.34 mol/L
- Log LC 50 (HS578T): −4.00 mol/L
- Log GI 50 (786-0): −4.84 mol/L
- Log LC 50 (786-0): −4.00 mol/L
- Log GI 50 (ACHN): −4.82 mol/L
- Log LC 50 (ACHN): −4.00 mol/L
- Log GI 50 (U251): −4.87 mol/L
- Log LC 50 (U251): −4.00 mol/L
- Log GI 50 (KM-12): −4.70 mol/L
- Log LC 50 (KM-12): −4.04 mol/L
- Log GI 50 (RXF 393): −4.23 mol/L
- Log LC 50 (RXF 393): −4.00 mol/L
- Log GI 50 (TK-10): −4.63 mol/L
- Log LC 50 (TK-10): −4.00 mol/L
- Log GI 50 (SW-620): −4.68 mol/L
- Log LC 50 (SW-620): −4.00 mol/L
- Log GI 50 (SNB-75): −4.23 mol/L
- Log LC 50 (SNB-75): −4.00 mol/L
- Log GI 50 (SK-MEL-5): −4.75 mol/L
- Log LC 50 (SK-MEL-5): −4.00 mol/L
- Log GI 50 (T-47D): −4.57 mol/L
- Log LC 50 (T-47D): −4.00 mol/L
- Log GI 50 (OVCAR-4): −4.00 mol/L
- Log LC 50 (OVCAR-4): −4.00 mol/L
- Log GI 50 (CAKI-1): −5.04 mol/L
- Log LC 50 (CAKI-1): −4.00 mol/L
- Log GI 50 (K-62): −4.58 mol/L
- Log LC 50 (K-62): −4.00 mol/L
- Log GI 50 (SR): −6.68 mol/L
- Log LC 50 (SR): −5.21 mol/L
- Log GI 50 (EKVX): −4.00 mol/L
- Log LC 50 (EKVX): −4.00 mol/L
- Log GI 50 (UACC-257): −4.49 mol/L
- Log LC 50 (UACC-257): −4.00 mol/L
- Log GI 50 (OVCAR-5): −4.65 mol/L
- Log LC 50 (OVCAR-5): −4.00 mol/L
- Log GI 50 (MOLT-4): −5.68 mol/L
- Log LC 50 (MOLT-4): −4.10 mol/L
- Log GI 50 (OVCAR-8): −4.58 mol/L
- Log LC 50 (OVCAR-8): −4.00 mol/L
- Log GI 50 (NCI-H522): −4.94 mol/L
- Log LC 50 (NCI-H522): −4.00 mol/L
- Log GI 50 (MDA-MB-435): −4.71 mol/L
- Log LC 50 (MDA-MB-435): −4.08 mol/L
- Log GI 50 (A498): −4.29 mol/L
- Log LC 50 (A498): −4.00 mol/L
- Log GI 50 (UACC-62): −4.83 mol/L
- Log LC 50 (UACC-62): −4.00 mol/L
- Log GI 50 (UO-31): −4.12 mol/L
- Log LC 50 (UO-31): −4.00 mol/L
- Log GI 50 (PC-3): −4.44 mol/L
- Log LC 50 (PC-3): −4.00 mol/L
- Log GI 50 (SK-MEL-2): −4.57 mol/L
- Log LC 50 (SK-MEL-2): −4.00 mol/L
